pIC50: −log10 of the molar value.

What all share (type): protein-complex assay
Test [1] deals with T1, Integrin alpha-4/beta-1 (Homo sapiens, UniProt P05556+P13612). Briefly: Inhibition of alpha4-beta1 integrin connecting segment 1 (CS1) splice variant binding interaction.
Target sequence in this assay (P05556 21-798 limits assumed, change not shown): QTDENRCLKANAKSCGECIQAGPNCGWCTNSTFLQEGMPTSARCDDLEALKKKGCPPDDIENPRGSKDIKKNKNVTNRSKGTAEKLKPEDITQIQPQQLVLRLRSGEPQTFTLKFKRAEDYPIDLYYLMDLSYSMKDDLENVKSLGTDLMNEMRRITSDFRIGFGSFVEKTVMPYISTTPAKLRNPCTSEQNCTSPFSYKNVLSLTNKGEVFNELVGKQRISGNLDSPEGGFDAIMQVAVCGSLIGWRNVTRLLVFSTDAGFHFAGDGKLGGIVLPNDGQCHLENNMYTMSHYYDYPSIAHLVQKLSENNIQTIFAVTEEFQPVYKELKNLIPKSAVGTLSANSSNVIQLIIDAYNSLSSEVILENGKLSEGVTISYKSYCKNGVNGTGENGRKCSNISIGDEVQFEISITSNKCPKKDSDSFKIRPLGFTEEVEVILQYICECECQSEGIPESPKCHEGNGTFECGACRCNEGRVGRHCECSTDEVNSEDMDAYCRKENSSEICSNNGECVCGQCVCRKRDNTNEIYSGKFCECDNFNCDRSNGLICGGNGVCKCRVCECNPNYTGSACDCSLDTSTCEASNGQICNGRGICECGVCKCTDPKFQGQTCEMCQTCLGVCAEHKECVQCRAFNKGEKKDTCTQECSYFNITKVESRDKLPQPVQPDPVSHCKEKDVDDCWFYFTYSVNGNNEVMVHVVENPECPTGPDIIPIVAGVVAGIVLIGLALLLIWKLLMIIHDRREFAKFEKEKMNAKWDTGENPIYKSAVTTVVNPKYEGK
Target sequence in this assay (P13612 34-1032 limits assumed, change not shown): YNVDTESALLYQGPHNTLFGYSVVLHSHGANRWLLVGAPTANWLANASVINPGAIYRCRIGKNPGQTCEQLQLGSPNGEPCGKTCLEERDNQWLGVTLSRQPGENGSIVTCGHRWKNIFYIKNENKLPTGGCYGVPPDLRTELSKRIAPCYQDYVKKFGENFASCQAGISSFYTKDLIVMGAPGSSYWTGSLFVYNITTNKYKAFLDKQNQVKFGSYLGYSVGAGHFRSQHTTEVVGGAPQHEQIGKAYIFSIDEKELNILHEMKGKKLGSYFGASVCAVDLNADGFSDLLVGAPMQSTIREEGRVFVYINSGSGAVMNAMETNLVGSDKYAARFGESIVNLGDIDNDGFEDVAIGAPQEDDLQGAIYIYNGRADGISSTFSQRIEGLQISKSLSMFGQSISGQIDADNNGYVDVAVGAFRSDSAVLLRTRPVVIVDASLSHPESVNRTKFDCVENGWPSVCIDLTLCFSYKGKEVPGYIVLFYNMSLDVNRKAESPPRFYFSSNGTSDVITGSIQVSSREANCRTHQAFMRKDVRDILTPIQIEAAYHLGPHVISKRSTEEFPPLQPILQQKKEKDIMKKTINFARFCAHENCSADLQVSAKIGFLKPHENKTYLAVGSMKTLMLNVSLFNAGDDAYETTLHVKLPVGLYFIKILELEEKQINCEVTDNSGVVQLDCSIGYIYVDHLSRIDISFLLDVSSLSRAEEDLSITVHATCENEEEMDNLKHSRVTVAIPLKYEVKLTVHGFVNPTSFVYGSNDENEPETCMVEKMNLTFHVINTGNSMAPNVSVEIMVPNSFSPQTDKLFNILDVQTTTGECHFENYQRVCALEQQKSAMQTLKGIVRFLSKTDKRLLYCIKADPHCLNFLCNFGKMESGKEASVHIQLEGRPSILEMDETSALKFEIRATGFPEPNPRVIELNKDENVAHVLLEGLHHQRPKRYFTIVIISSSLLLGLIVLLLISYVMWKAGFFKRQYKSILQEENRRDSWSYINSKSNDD
Test [2] deals with T1, Integrin alpha-4/beta-1. Briefly: Inhibition of alpha4-beta1 integrin connecting segment 1 (CS1) splice variant binding interaction 100 uM.
Test [3] has as its target T1, Integrin alpha-4/beta-1. In words: Inhibition of alpha4-beta1 integrin connecting segment 1 (CS1) splice variant binding interaction at 100 uM.

Broadly, the pIC50 is the IC50 on a negative log10 scale, so that one unit is a factor of ten. The low end stands for a large IC50, the high end for a small IC50. Broadly, the inhibition is the share of the control response that was lost under treatment. A lower inhibition goes with a response near the control. On to `O=C(O)CCN1CCS[C@@H](CC(=O)O)C(=O)N[C@@H](Cc2ccc(O)cc2)C1=O`, for which, at Integrin alpha-4/beta-1 [1], the pIC50 was 5.10. This compound also returned an inhibition on Integrin alpha-4/beta-1 [2] of 100%.

As for `O=C(O)CCN1CCS[C@H](CC(=O)O)C(=O)N[C@@H](Cc2ccc(O)cc2)C1=O`, the negative logarithm of the IC50 (pIC50) on Integrin alpha-4/beta-1 [1] was 5.30. For the same compound, the inhibition at Integrin alpha-4/beta-1 [3] was determined as 100%.

Turning to `CCCCN1CCS[C@@H](CC(=O)O)C(=O)N[C@@H](Cc2ccccc2)C1=O`, the pIC50 at Integrin alpha-4/beta-1 [1] was under 4.00. On Integrin alpha-4/beta-1 [3], this compound displayed an inhibition of 41%.

On Integrin alpha-4/beta-1 [1], `CC(C)CCN1CCS[C@@H](CC(=O)O)C(=O)N[C@@H](Cc2ccccc2)C1=O` gave a pIC50 of under 4.00. Further, the inhibition on Integrin alpha-4/beta-1 [3] is 0%.

Source of the values: ChEMBL document CHEMBL1130943, “Novel inhibitors of alpha 4 beta 1 integrin receptor interactions through library synthesis and screening” (Bioorg Med Chem Lett, 1998).
